According to ChEMBL document CHEMBL4130547, “Targeted Isolation of Monoterpene Indole Alkaloids from Palicourea sessilis” (J Nat Prod, 2017):

How the values were obtained:
[1] = molecular target: Acetylcholinesterase (Electrophorus electricus, UniProt O42275); assay: Inhibition of Electrophorus electricus AChE using acetylthiocholine iodide as substrate measured during 6 mins by Ellman's method
[2] = molecular target: Acetylcholinesterase (Electrophorus electricus) (UniProt O42275); assay: Inhibition of Electrophorus electricus AChE at 50 uM using acetylthiocholine iodide as substrate measured after 10 mins by Ellman's method relative to control
Acetylcholinesterase (Electrophorus electricus), sequence (O42275 24-633 limits assumed): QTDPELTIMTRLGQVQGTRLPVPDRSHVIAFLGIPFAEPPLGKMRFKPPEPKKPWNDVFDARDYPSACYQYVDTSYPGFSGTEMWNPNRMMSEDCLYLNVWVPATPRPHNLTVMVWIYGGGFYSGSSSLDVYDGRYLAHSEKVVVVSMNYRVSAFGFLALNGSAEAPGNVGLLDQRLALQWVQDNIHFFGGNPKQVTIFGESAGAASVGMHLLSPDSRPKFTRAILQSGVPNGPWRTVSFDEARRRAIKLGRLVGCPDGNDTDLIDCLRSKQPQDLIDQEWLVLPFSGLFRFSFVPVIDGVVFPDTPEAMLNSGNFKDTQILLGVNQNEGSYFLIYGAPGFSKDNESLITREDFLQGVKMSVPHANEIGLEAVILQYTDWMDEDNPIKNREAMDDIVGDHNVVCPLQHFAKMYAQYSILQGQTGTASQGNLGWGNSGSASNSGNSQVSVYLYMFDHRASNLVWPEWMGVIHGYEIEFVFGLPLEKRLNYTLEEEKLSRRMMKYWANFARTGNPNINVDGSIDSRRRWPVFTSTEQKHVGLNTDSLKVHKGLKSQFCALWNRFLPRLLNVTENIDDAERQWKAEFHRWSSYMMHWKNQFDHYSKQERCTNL

Acetylcholinesterase, sequence (O42275 whole entry): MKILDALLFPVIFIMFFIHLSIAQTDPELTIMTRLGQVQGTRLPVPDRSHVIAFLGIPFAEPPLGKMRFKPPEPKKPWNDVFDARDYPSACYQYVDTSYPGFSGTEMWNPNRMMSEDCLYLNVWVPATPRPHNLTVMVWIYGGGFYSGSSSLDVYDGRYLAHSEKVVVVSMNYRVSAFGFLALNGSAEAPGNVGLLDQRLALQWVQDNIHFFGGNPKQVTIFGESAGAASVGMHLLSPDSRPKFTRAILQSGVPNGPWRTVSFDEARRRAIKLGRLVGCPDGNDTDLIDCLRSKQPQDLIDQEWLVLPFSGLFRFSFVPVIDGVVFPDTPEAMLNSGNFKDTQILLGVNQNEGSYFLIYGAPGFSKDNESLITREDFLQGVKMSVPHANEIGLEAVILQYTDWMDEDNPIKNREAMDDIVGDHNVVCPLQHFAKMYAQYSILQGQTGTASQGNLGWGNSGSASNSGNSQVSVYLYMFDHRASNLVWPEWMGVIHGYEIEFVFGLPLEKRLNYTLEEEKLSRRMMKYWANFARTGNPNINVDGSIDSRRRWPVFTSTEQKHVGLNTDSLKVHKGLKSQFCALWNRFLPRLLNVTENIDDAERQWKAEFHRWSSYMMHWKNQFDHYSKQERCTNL

| SMILES | IC50 [1] | inhibition [2] |
| --- | --- | --- |
| C=C[C@H]1CO[C@@H]2C[C@H]1Cc1c3[nH]c4ccccc4c3cc[n+]12 | 10 µM | – |
| CN1CCC2(O)c3ccccc3NC12 (centres undefined) | – | 53.7% |
| CNCCc1c[nH]c2ccccc12 | – | 49.8% |
| C=C[C@H]1CO[C@@H]2C[C@H]1C(=O)c1c3[nH]c4ccccc4c3cc[n+]12 | 3.4 µM | – |
